# Assay results as given in US12507703B2, “Methods, devices and compositions for preserving human milk” (The Trustees of Princeton University, priority 2023, dated 2025).
# Values joined by “and” are separate entries in the source; they are usually repeats but may differ in a detail not shown here. Equal values may be shown once. Where a SMILES comes first, the peptide text is derived from it.
# Test system: lipase
# Assay: Lipase/lipolysis assay (EnzChek Lipase Substrate, quenched BODIPY-fatty acid conjugate) on stored human milk; as to Lipase (RFU): test concentration or dose not given here
# Conditions: not given
Molecule,Lipase (RFU),Hit in lipase inhibition screen (in words)
CC(=O)O[C@@H]1CC[C@@]2(C)[C@@H](CC[C@]3(C)[C@@H]2CC=C2[C@@H]4[C@@H](C)[C@H](C)CC[C@]4(C)CC[C@]23C)[C@@]1(C)C(=O)O [3-Acetyl-beta-boswellic acid],752.9436 RFU,–
O=C(O)[C@H]1O[C@@H](Oc2c(-c3ccc(O)cc3)oc3cc(O)cc(O)c3c2=O)[C@H](O)[C@@H](O)[C@@H]1O [Kaempferol 3-O-β-D-glucuronide],1023.998 RFU,–
CC1(C)CC[C@]2(C(=O)O[C@@H]3O[C@H](CO)[C@@H](O)[C@H](O)[C@H]3O)CC[C@]3(C)C(=CC[C@@H]4[C@@]5(C)CC[C@H](O[C@@H]6O[C@H](C(=O)O)[C@@H](O)[C@H](O)[C@H]6O[C@@H]6O[C@H](CO)[C@@H](O)[C@H](O)[C@H]6O)C(C)(C)[C@@H]5CC[C@]43C)[C@@H]2C1 [Ginsenoside Ro],1082.912 RFU,–
NC(=O)c1ccc[n+]([C@@H]2O[C@H](CO)[C@@H](O)[C@H]2O)c1.[Cl-] [Nicotinamide riboside (chloride)],991.823 RFU,–
C[N+](C)(C)CCOP(=O)(O)O [Phosphorylcholine],1107.376 RFU,–
NCC(=O)N1CCC[C@H]1C(=O)O [Glycyl-L-Proline] (H-Gly-Pro-OH),318.8964 RFU,significantly inhibited lipase activity
C[C@H](N)C(=O)NCC(=O)O [L-Alanyl-Glycine] (H-Ala-Gly-OH),816.3246 RFU,–
O=C[C@@H](O)[C@H](O)[C@H](O)CO [Arabinose],1341.366 RFU,–
C[C@]12CC[C@H]3[C@@H](CCC4=CC(=O)CC[C@@]43C)[C@@H]1CC[C@@H]2C(=O)CO [Deoxycorticosterone],992.8813 RFU,–
Ginkgolide C,1234.872 RFU,–
COc1ccc([C@@H]2CC(=O)c3c(O)cc(O[C@@H]4O[C@H](CO[C@@H]5O[C@@H](C)[C@H](O)[C@@H](O)[C@H]5O)[C@@H](O)[C@H](O)[C@H]4O)cc3O2)cc1 [Didymin],1064.164 RFU,–
COc1cc2oc(=O)ccc2cc1CC=C(C)C [Suberosin],1003.25 RFU,–
OP(O)(O)=S [Thiophosphate],918.3175 RFU and 750.1825 RFU,–
CCCCCC(=O)O [Caproic Acid],905.3416 RFU,–
C[N+](C)(C)CCOP(=O)([O-])OP(=O)([O-])OC[C@H]1O[C@@H](n2ccc(N)nc2=O)[C@H](O)[C@@H]1O.[Na+] [Citicoline (sodium)],965.9573 RFU,–
NCC(=O)N[C@@H](CC(=O)O)C(=O)O [Glycyl-L-Aspartic] (H-Gly-Asp-OH),903.5873 RFU,–
O=C(O)CN(CCO)CCO [Bicine],1070.519 RFU,–
CCCCC/C=C\C/C=C\CCCCCCCC(=O)OCC(COC(=O)CCCCCCC/C=C\C/C=C\CCCCC)OC(=O)CCCCCCC/C=C\C/C=C\CCCCC [Trilinolein],834.4039 RFU,–
NCCCC[C@H](N)C(=O)O [L-Lysine],909.5913 RFU and 1084.77 RFU and 881.5409 RFU and 1310.906 RFU,–

Molecule,Lipase (RFU),Hit in lipase inhibition screen (in words)
COc1cc(CC(=O)O)ccc1O [Homovanillic acid],934.4466 RFU,–
CC(C)=CCC/C(C)=C/CC/C(C)=C/CC/C(C)=C/CC1=C(C)C(=O)c2ccccc2C1=O [Menaquinone-4],987.2266 RFU,–
C=C1CC/C=C(\C)CC[C@@H]2[C@@H]1CC2(C)C [β-Caryophyllene],881.1948 RFU,–
Maltotetraose,824.2713 RFU,–
CCC(C)N (stereo not shown) [Sec-Butylamine],784.9928 RFU,–
c1ccc2c(c1)CCO2 [Coumaran],980.2989 RFU,–
CC(C)=CCC[C@](C)(O)[C@H]1CC[C@]2(C)[C@@H]1[C@H](O)C[C@@H]1[C@@]3(C)CC[C@H](O)C(C)(C)[C@@H]3[C@@H](O[C@@H]3O[C@H](CO)[C@@H](O)[C@H](O)[C@H]3O)C[C@]12C [Ginsenoside Rh1],665.2277 RFU,–
CC(C)=CCC[C@](C)(O[C@@H]1O[C@H](CO[C@@H]2O[C@H](CO)[C@@H](O)[C@H](O)[C@H]2O)[C@@H](O)[C@H](O)[C@H]1O)[C@H]1CC[C@]2(C)[C@@H]1[C@H](O)C[C@@H]1[C@@]3(C)CC[C@H](O[C@@H]4O[C@H](CO)[C@@H](O)[C@H](O)[C@H]4O[C@@H]4O[C@H](CO)[C@@H](O)[C@H](O)[C@H]4O)C(C)(C)[C@@H]3CC[C@]12C [Ginsenoside Rb1],830.8489 RFU,–
C=C1C(=O)O[C@@H]2[C@H]3C(CO)=CC(=O)C3=C(C)C[C@H](OC(=O)Cc3ccc(O)cc3)[C@@H]12 [Lactupicrin],995.7975 RFU,–
OC[C@H]1O[C@@](CO)(O[C@H]2O[C@H](CO)[C@@H](O)[C@H](O)[C@H]2O)[C@@H](O[C@H]2O[C@H](CO)[C@@H](O)[C@H](O)[C@H]2O)[C@@H]1O [D-Melezitose],1021.506 RFU,–
CCCCCCCCCCCCCCC[C@@H](O)[C@@H](N)CO [D-Erythro-dihydrosphingosine],1051.007 RFU,–
COc1ccc(-c2cc(=O)c3c(OC)c(OC)c(OC)c(OC)c3o2)cc1 [Tangeritin],1254.653 RFU,–
CC(C)=CCC[C@](C)(O)[C@H]1CC[C@]2(C)[C@@H]1[C@H](O)C[C@@H]1[C@@]3(C)CC[C@H](O)C(C)(C)[C@@H]3[C@@H](O[C@@H]3O[C@H](CO)[C@@H](O)[C@H](O)[C@H]3O[C@@H]3O[C@@H](C)[C@H](O)[C@@H](O)[C@H]3O)C[C@]12C [Ginsenoside Rg2],1144.609 RFU,–
C/C(=C\CC[C@@H](C)[C@H]1CC[C@@]2(C)C3=CC[C@H]4C(C)(C)[C@@H](O)CC[C@]4(C)C3=CC[C@]12C)CO [Ganoderol B],970.7443 RFU,–
C=C(CO)C(=O)O[C@H]1CC(=C)[C@@H]2C[C@H](O)C(=C)[C@@H]2[C@H]2OC(=O)C(=C)[C@@H]21 [Cynaropicrin],1182.791 RFU,–
"CC(C)(C)CC(C)(C)c1ccc(O)cc1 [Compound 4-tert-Octylphenol, 4-tert-Octylphenol]",868.4892 RFU,–
CCCCCCCCCCCCCC(=O)OC[C@H](COP(=O)(O)OCCN)OC(=O)CCCCCCCCCCCCC,805.4396 RFU,–
"CC(=O)[C@H]1CC[C@H]2[C@@H]3CC[C@H]4CC(=O)CC[C@]4(C)[C@H]3CC[C@]12C [5a-Pregnane-3,20-dione]",1117.705 RFU,–
NC(COP(=O)(O)O)C(=O)O (racemic) [DL-O-Phosphoserine],728.85 RFU,–

Molecule,Lipase (RFU),Hit in lipase inhibition screen (in words)
Nc1nc2c(ncn2[C@@H]2O[C@H](COP(=O)([O-])[O-])[C@@H](O)[C@H]2O)c(=O)[nH]1.[Na+].[Na+] [5′-Guanylic acid (disodium salt)],910.9839 RFU,–
O=C(/C=C/c1ccc(O)c(O)c1)O[C@@H]1CC(O)(C(=O)O)C[C@@H](OC(=O)/C=C/c2ccc(O)c(O)c2)C1O (stereo partly shown) [Isochlorogenic acid A],827.6093 RFU,–
N=C(N)NCCC[C@@H](N)C(=O)O [D-Arginine],1215.288 RFU,–
Cc1c[nH]c2ccccc12 [Skatole],735.1893 RFU and 599.6554 RFU,–
CC(=O)c1ccc(O)cc1 [4-Hydroxyacetophenone],724.0191 RFU,–
Nc1c(O)cccc1C(=O)CC(N)C(=O)O (stereo not shown) [Compound 3-Hydroxykynurenine],1303.264 RFU,–
CC1C(=O)OC2C(O)C34C5CC(C(C)(C)C)C36C(OC(=O)C6O)OC4(C(=O)O5)C12O (stereo not shown) [Ginkgolide B],1094.796 RFU,–
CCCCCCCCCCCCC/C=C/[C@@H](O)[C@@H](N)CO[C@@H]1O[C@H](CO)[C@@H](O)[C@H](O)[C@H]1O [Glucosylsphingosine],955.6283 RFU,–
NCCO [2-Aminoethanol],533.8 RFU,–
N[C@@H](CS(=O)O)C(=O)O [L-Cysteinesulfinic acid],867.5137 RFU,–
Pseudoginsenoside F11,810.4484 RFU,–
COc1cc(/C=C/C(=O)NCC(O)c2ccc(O)cc2)ccc1O (stereo not shown) [N-Feruloyloctopamine],893.4142 RFU,–
CC1(C)[C@@H](O[C@H]2O[C@H](C(=O)[O-])[C@@H](O)[C@H](O)[C@H]2O[C@@H]2O[C@H](C(=O)[O-])[C@@H](O)[C@H](O)[C@H]2O)CC[C@]2(C)[C@H]3C(=O)C=C4[C@@H]5C[C@@](C)(C(=O)O)CC[C@]5(C)CC[C@@]4(C)[C@]3(C)CC[C@@H]12.[K+].[K+] [Dipotassium glycyrrhizinate],813.8172 RFU and 1090.475 RFU,–
"CC(=O)N[C@H]1[C@H](O[C@H]2[C@H](O)[C@@H](NC(C)=O)C(O)O[C@@H]2CO)O[C@H](CO)[C@@H](O[C@@H]2O[C@H](CO)[C@@H](O)[C@H](O)[C@H]2NC(C)=O)[C@@H]1O (stereo partly shown) [N,N′,N″-Triacetylchitotriose]",1143.03 RFU,–
CC1(C)[C@@H](O[C@H]2O[C@H](C(=O)O)[C@@H](O)[C@H](O)[C@H]2O[C@@H]2O[C@H](C(=O)O)[C@@H](O)[C@H](O)[C@H]2O)CC[C@]2(C)[C@H]3C(=O)C=C4[C@@H]5C[C@@](C)(C(=O)O)CC[C@]5(C)CC[C@@]4(C)[C@]3(C)CC[C@@H]12 [Ammonium glycyrrhizinate],918.7261 RFU,–
CC1=C(C=O)C(C)(C)C[C@H](O[C@@H]2O[C@H](CO)[C@@H](O)[C@H](O)[C@H]2O)C1 [Picrocrocin],633.2514 RFU,–
OC[C@H]1O[C@H](O[C@H]2O[C@H](CO)[C@@H](O)[C@H](O)[C@H]2O)[C@H](O)[C@@H](O)[C@@H]1O [D-(+)-Trehalose],893.2005 RFU and 909.0228 RFU,–
O=CCCO [Reuterin],1125.363 RFU,–

# Same assay, conditions: (hydrochloride)
row,Molecule,Lipase (RFU)
1,Cc1ncc(CO)c(CO)c1O.Cl [Pyridoxine (hydrochloride)],911.6428 RFU and 799.8007 RFU
